Article PMC5554537 (Frontiers in Pharmacology, 2017)

Columns and labels:
[1] = Stability in mouse liver homogenates (QC samples); type: physicochemical
Description: using octa-deuterated internal standards of SN30000, M13 and M14 synthesised as previously reported (Wang et al., 2012). Intra- and inter-day precision (expressed as relative standard deviation (RSD) and accuracy (expressed as percentage of the nominal value) were deter mined by analy sis of replicates (n=6) of low and high quality control (QC) samples on three different days. The lower limit of quantitation (LLOQ) was defined as the lowest concentration providing RSD and accuracy < 20%. Recovery from plasma and liver ho mogenates was tested at the three QC levels. The recoveries were evaluated by comparing extracted samples with blank extracted solutions spiked with analytes of the same amount.
Matrix effects, defined as the change in response due to the presence of other substances in the samples, were evaluated by comparing the analytes diluted into the blank plasma or liver extracted solution with that of the same stock solutions diluted in water. Three different concentration levels (low, medium and high QC) were evaluated by analysing three samples at each level. Accuracy , precision, recovery and matrix effects were all acceptable over the concentration ranges evaluated for plas ma (Supplementary Table 1) and for liver homogenates (Supplementary Table 2).
Stability of the analytes in mouse plasma (Supplementary Table 3) or liver homogenate (Supplementary Table 4) was confirmed during holding of QC samples on ice for up to 2 h under nor mal laboratory lighting, although there was a trend towards loss of SN30000 in plasma samples held in clear microcentrifuge tubes which may reflect the known photosensitivity of the compound (Gu et al., 2014). This loss was reduced by use of red microcentrifuge tubes, and eliminated by black tubes. Stability in both matrices was also confir med for one month storage at -80°C and for three freeze-thaw cycles, while MeOH-deproteinised samples w ere stable for 12 h at 4°C in the autosampler (Supplementary Tables

in vivo [2] = details: NIH-III, mouse, in vivo, ip
in vivo [3] = details: NIH-III nude, mouse, in vivo, iv
Protocol: SN30000, M14 and M18 dosing solutions were prepared fresh in normal saline, filtered through 0.45 μm Acrodisc filters (Pall Life Sciences, Port Washington, NY, United States), protected from light in amber vials, and used within 3 h. Doses are expressed as mg of free base equivalent for SN30000 and M14, and free acid in the case of M18. […] Blood samples were collected from mice at various times by cardiac puncture, seconds after cervical dislocation, into ice-cold tubes containing K2EDTA. These were placed on ice immediately after collection and centrifuged (3,000 g, 3 min) within 10 min to harvest plasma. Plasma and tissues were rapidly frozen in liquid nitrogen before storage at -80°C for subsequent bioanalysis.
M18 was quantified by absorbance detection with reference to an external standard calibration curve.
Concentration-time data were analyzed by non-compartmental analysis using Phoenix WinNonlin (ver 6.4, Build 6.4.0768 Pharsight, United States); all AUC values were extrapolated to infinity using the linear trapezoidal rule. […] Model fits were further assessed by visual inspection of the residuals and predicted PK.

[4] = Compartmental plasma PK model; type: in vivo; set-up: Absorption rate constant Ka: unit not given here
Description: This model, shown schematically in Figure 9, is based on total (free + bound) plasma concentrations; the major metabolites (M14, M13, and M18) are explicit and clearance of SN30000 occurs only by reduction to M14. The i.p. bioavailability of SN30000 was modeled with an additional term for loss from the peritoneal compartment (kloss).

NIH-III mice = assay: Core body (rectal) temperature and acute clinical signs after dosing; type: in vivo; details: i.p. SN30000 186 mg/kg, TPZ 31.7 mg/kg, M14 135 mg/kg
Protocol: Supplementary Figure 3. Initial rates of core temperature decrease in (untreated) NIH-III mice post- mortem: co mparison with initial temperature change ante- mortem following treatment with benzotriazine oxides at their MTD. Temperature was measured in rectu m and liver over 15 min. Initial rates of temperature loss (°C/min) were: post- mortem (rectum):
(rectum) 0.33. The rectal temperature loss following dosing with M14 (135 mg/kg) was 0.6 °C/min (not shown for clarity). The drug-induced changes are redrawn from Fig. 4.

[5] = Plasma, liver and brain PK after i.p. dosing with M14; type: in vivo; details: i.p. M14 135 mg/kg; for Cmax / half-life: NIH-III nude, mouse, in vivo, ip, 135 mg/kg; for Cmax: read-out: Cmax; for half-life: read-out: Terminal T1/2
Protocol: Concentration-time data were analyzed by non-compartmental analysis using Phoenix WinNonlin (ver 6.4, Build 6.4.0768 Pharsight, United States); all AUC values were extrapolated to infinity using the linear trapezoidal rule. A compartmental model for plasma PK after dosing with SN30000 or M14 was fitted using Phoenix NLME v1.3 with random effects on the metabolite volumes of distribution, and temperature effects based on the observed body temperature at the last measurement time. Temperature effects were added or removed until there was no significant change in the log likelihood. Model fits were further assessed by visual inspection of the residuals and predicted PK.

[6] = liver homogenate deproteinised in 3 vol MeOH, 12 h autosampler at 4°C, nominal SN30000 0.5, M14 0.25, M13 0.1 µM
[7] = liver homogenate deproteinised in 3 vol MeOH, 12 h autosampler at 4°C, nominal SN30000 5, M14 2.5, M13 1 µM
[8] = liver homogenate deproteinised in 3 vol MeOH, 12 h autosampler at 4°C, nominal SN30000 50, M14 25, M13 10 µM
[9] = liver homogenate, 1 month at -80°C, nominal SN30000 0.5, M14 0.25, M13 0.1 µM
[10] = liver homogenate, 1 month at -80°C, nominal SN30000 5, M14 2.5, M13 1 µM
[11] = liver homogenate, 1 month at -80°C, nominal SN30000 50, M14 25, M13 10 µM
[12] = liver homogenate, 1h on ice, clear tubes, nominal SN30000 0.5, M14 0.25, M13 0.1 µM
[13] = liver homogenate, 1h on ice, clear tubes, nominal SN30000 5, M14 2.5, M13 1 µM
[14] = liver homogenate, 1h on ice, clear tubes, nominal SN30000 50, M14 25, M13 10 µM
[15] = liver homogenate, 2h on ice, nominal SN30000 0.5, M14 0.25, M13 0.1 µM
[16] = liver homogenate, 2h on ice, nominal SN30000 5, M14 2.5, M13 1 µM
[17] = liver homogenate, 2h on ice, nominal SN30000 50, M14 25, M13 10 µM
[18] = liver homogenate, three freeze-thaw cycles, nominal SN30000 0.5, M14 0.25, M13 0.1 µM
[19] = liver homogenate, three freeze-thaw cycles, nominal SN30000 5, M14 2.5, M13 1 µM
[20] = liver homogenate, three freeze-thaw cycles, nominal SN30000 50, M14 25, M13 10 µM

[O-][n+]1nc(CCCN2CCOCC2)nc2cc3c(cc21)CCC3 [M14]
Bias [1, 6]: 3.86% | Measured conc [1, 6]: 0.26 µM | Bias [1, 7]: 5.73% | Measured conc [1, 7]: 2.64 µM | Bias [1, 8]: 5.22% | Measured conc [1, 8]: 26.30 µM | Bias [1, 9]: 1.76% | Measured conc [1, 9]: 0.25 µM | Bias [1, 10]: 4.04% | Measured conc [1, 10]: 2.35 µM | Bias [1, 11]: 5.13% | Measured conc [1, 11]: 23.54 µM | Bias [1, 12]: 5.21% | Measured conc [1, 12]: 0.26 µM | Bias [1, 13]: 1.78% | Measured conc [1, 13]: 2.54 µM | Bias [1, 14]: 3.05% | Measured conc [1, 14]: 25.76 µM | Bias [1, 15]: 8.20% | Measured conc [1, 15]: 0.27 µM | Bias [1, 16]: 9.32% | Measured conc [1, 16]: 2.73 µM | Bias [1, 17]: 0.75% | Measured conc [1, 17]: 25.19 µM | Bias [1, 18]: -4.84% | Measured conc [1, 18]: 0.24 µM | Bias [1, 19]: -5.62% | Measured conc [1, 19]: 2.36 µM | Bias [1, 20]: 5.39% | Measured conc [1, 20]: 26.35 µM | AUC (in vivo [2]; 1.86 mg/kg): 0.02 µM·h | Cmax (in vivo [2]; 1.86 mg/kg): 0.053 µM | half-life (in vivo [2]; 1.86 mg/kg): 29.5 min | AUC (in vivo [2]; 18.6 mg/kg): 0.38 µM·h | Cmax (in vivo [2]; 18.6 mg/kg): 1.11 µM | half-life (in vivo [2]; 18.6 mg/kg): 32.5 min | AUC (in vivo [2]; 78.3 mg/kg): 7.52 µM·h | Cmax (in vivo [2]; 78.3 mg/kg): 13.3 µM | half-life (in vivo [2]; 78.3 mg/kg): 20.1 min | AUC (in vivo [2]; 92.8 mg/kg): 10.8 µM·h | Cmax (in vivo [2]; 92.8 mg/kg): 16.8 µM | half-life (in vivo [2]; 92.8 mg/kg): 22.9 min | AUC (in vivo [2]; 186 mg/kg): 24.6 µM·h | Cmax (in vivo [2]; 186 mg/kg): 23 µM | half-life (in vivo [2]; 186 mg/kg): 58.1 min | AUC (in vivo [3]; 1.86 mg/kg): 0.042 µM·h | half-life (in vivo [3]; 1.86 mg/kg): 12.3 min | AUC (in vivo [3]; 18.6 mg/kg): 0.6 µM·h | half-life (in vivo [3]; 18.6 mg/kg): 28.5 min | AUC (in vivo [3]; 78.3 mg/kg): 11.6 µM·h | half-life (in vivo [3]; 78.3 mg/kg): 31.5 min | Central compartment volume V1 ([4]; 1-Oxide and Nor-oxide values fixed): 2.2 L/kg | Temperature effect (N) on V1 ([4]; (1+ΔT)^-N): 0.48 | Approximate % suppression per °C of CL ([4]; NIH-III, mouse, in vivo): ~82% | Approximate % suppression per °C of V1 ([4]; NIH-III, mouse, in vivo): ~28% | Intercompartmental clearance Clic ([4]; NIH-III, mouse, in vivo): 4.64 L/h/kg | Peripheral compartment volume V2 ([4]; NIH-III, mouse, in vivo): 3.51 L/kg | clearance ([4]; NIH-III, mouse, in vivo, model clearance of the compound, read-out: CL (converted)): 1020 mL/min/kg | Absorption rate constant Ka ([4]; i.p. dosing compartment, SN30000 value fixed): 4.43 | Initial rate of temperature loss (rectum) (NIH-III mice): 0.6 °C/min | Cmax ([5]; brain): 260 ± 29 µM | half-life ([5]; brain): 20.1 min | Cmax ([5]; liver): 319 ± 46.1 µM | half-life ([5]; liver): 25.1 min | Cmax ([5]; plasma): 95.6 ± 9.8 µM | half-life ([5]; plasma): 30.8 min | AUC ([5]; brain): 108.3 µmol·h/kg | AUC ([5]; liver): 131.1 µmol·h/kg | AUC ([5]; plasma): 36.6 µmol·h/kg
